This note sets out measurements from patent publication US20060014723A1, “Anti-parasitic uses of borinic acid complexes” (priority 2004, published 2006).

The test system of test [1] is P. falciparum K1. In words: Malaria in vitro screening model (3H-hypoxanthine incorporation). In kind it is cell-based, Plasmodium falciparum. The gist of the method: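 Chloroquine/pyrimethamine-resistant P. falciparum K1 in human A+ erythrocytes (0.15% parasitemia, 2.5% hematocrit) was exposed to seven 2-fold compound dilutions in hypoxanthine-free medium at 37 °C, low O2. After 48 h, 0.5 μCi ³H-hypoxanthine was added for 24 h more. IC50 was taken from sigmoidal curves as % of untreated control.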

For test [2], the system named is P. Berghei. The test can be described thus: In vivo efficacy mouse malaria model. The conditions noted are these: 2×/day. Here is the method:
Test compounds will be compared to chloroquine, artemisinin, mefloquine as follows: NMRI mice, SPF, females, […]
From a donor mouse with approximately 30% parasitemia, heparinized blood is taken and diluted in physiological saline to 10^8 parasitized erythrocytes per mL. An aliquot of 0.2 mL (=2×10^7 parasitized erythrocytes) of this suspension is injected intravenously (i.v.) into experimental groups of 4 mice.
Two-to-four hours post-infection, the experimental groups are treated with a single dose by the subcutaneous or the oral route. The compounds are prepared at an appropriate concentration, as a solution or suspension containing 3% ethanol and 7% Tween 80 or in SSV (standard suspending vehicle): […]
Twenty-four hours after the last treatment ([…]) blood smears from all animals are prepared and stained with Giemsa. Parasitemia is determined microscopically by counting 400 red blood cells (“rbcs”), for low parasitemias (<1%) up to 4,000 rbc's have to be counted. The difference between the mean value of the control group (taken as 100%) and those of the experimental groups is calculated and expressed as % Reduction where: [formula]
Additional smears will be taken on day 5 and day 6; and parasitemia will be determined and the activity calculated. Survival time (in days) is recorded, and the mean survival time is calculated. Adverse effects are recorded. Four mice/compound and a minimum of 12 mice/study (vehicle and positive controls run concurrently) are used.

Test [3] has as its system Trypanosoma cruzi Tulahuen C2C4 strain. The test can be described thus: Chagas disease in vitro screening model (beta-galactosidase strain in L-6 cells). In kind it is cell-based. The gist of the method: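 L-6 rat myoblasts in RPMI 1640/10% FBS at 37 °C were infected with 5×10^3 lacZ-expressing T. cruzi Tulahuen C2C4 trypomastigotes. CPRG/Nonidet substrate was read at 540 nm, and IC50 came from sigmoidal curves.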

SMILES strings stand for the structures. Values after ≈ are worked out from the molar mass of the structure shown.

For `CC1(C)COC(c2cccc(B(Oc3cccc4cccnc34)c3cccc(C4=NC(C)(C)CO4)c3)c2)=N1` [Compound 13, Bis[3-(4,5-dihydro-4,4-dimethyloxazol-2-yl)phenyl]borinic acid 8-hydroxyquinoline ester], the “P. falciparum IC50” value in test [1] is 2 µg/mL. Further, in test [2] (4 × 30 mg/kg, s.c.), the “% of Activity” value stood at 52.31%, the “Mean Survival” value is 15.3 days, the “Parasitized RBC over 100 % of Control” value was determined as 47.09% and the “Parasitized RBC over 100 Mean” value was 11.9. Also, in test [2] (4 × 100 mg/kg, p.o.), the “% of Activity” value came out at 81.29%, the “Mean Survival” value is 12.7 days, the “Parasitized RBC over 100 % of Control” value is reported as 18.78% and the “Parasitized RBC over 100 Mean” value worked out at 4.7. Also, in test [3], the “T. cruzi IC50” value worked out at 8.7 µg/mL.
For the compound `COc1ccc(B(Oc2cccc3cccnc23)c2cccc(Cl)c2)cc1OC` [Compound 27, (3-Chlorophenyl)(3,4-dimethoxyphenyl)borinic acid quinolin-8-yl ester], in test [1] (Plasmodium falciparum, K1), the IC50 (as a rule, the point on the concentration scale where inhibition reaches its midpoint) was found to be 1.7 µg/mL (≈ 4.21 µM). For the same compound, in test [2] (4 × 100 mg/kg, s.c.), the “% of Activity” value is listed as 68.09%, the “Mean Survival” value worked out at 18.7 days, the “Parasitized RBC over 100 % of Control” value is 31.91% and the “Parasitized RBC over 100 Mean” value stood at 7.9. Also, in test [2] (4 × 300 mg/kg, p.o.), the “% of Activity” value is on record as 56.94%, the “Mean Survival” value is 15.7 days, the “Parasitized RBC over 100 % of Control” value was 43.08% and the “Parasitized RBC over 100 Mean” value is reported as 10.7. In test [3] (Trypanosoma cruzi, TULAHUEN, L6, read-out: T. cruzi IC50), the IC50 was 3.2 µg/mL (≈ 7.93 µM).
